The test system of the experiment is mice with hyperuricemia. Kind of experiment: Serum creatinine of mice with hyperuricemia (Mindray BS480 biochemical analyzer). The experiment is classed as in vivo, KunMing mice. Conditions: 5 mg/kg BW by intragastric administration. Here is the method: 24 healthy male KunMing mice with the weight of 24 to 32 g were randomly divided into four groups after a week of acclimatization, namely a control group, a hyperuricemia model group, an L. reuteri CCFM1132 intervention group and an allopurinol intervention group (allopurinol). Except the control group, 500 mg/kg BW hypoxanthine was given to the other groups every day by intragastric administration, and 200 mg/kg BW oteracil potassium was intraperitoneally injected to the other groups 1 h later. At 1 h before processing with oteracil potassium, 100 g/L skim milk was given to the control group and the hyperuricemia model group, L. reuteri CCFM1132 with the concentration of 1.0×10^9 CFU/mouse was given to the L. reuteri CCFM1132 intervention group, and 5 mg/kg BW allopurinol was given to the allopurinol group.
At the end of the experiment, fresh feces of the mice was collected and frozen at −80° C. After the experiment was finished, the mice were subjected to fasting but free for drinking water for 12 h. 0.1 mL/10 g of […] pentobarbital sodium solution was intraperitoneally injected for anesthetization. […] The serum uric acid levels were determined by using a kit method.
Experimental animal groups and processing methods are the same as those of Example 3, and serum creatinine was detected by using a Mindray BS480 biochemical analyzer according to a kit method.

Regarding `Oc1ncnc2[nH]ncc12` [allopurinol], the “serum creatinine reducing effect” value is on record as “does not have the reducing effect”.

For the origin of these results see patent US12533384B2, “Lactobacillus reuteri CCFM1132 capable of relieving hyperuricemia and application thereof” (Jiangnan University, priority 2020, dated 2026).
